Experimental data taken from ChEMBL document CHEMBL4406912, “Discovery and Optimization of Dibenzodiazepinones as Allosteric Mutant-Selective EGFR Inhibitors” (ACS Med Chem Lett, 2019).
Active and inactive are the calls of the source. No cut-off for these calls is given here.

Tests used:
[1] = target: Epidermal growth factor receptor (Homo sapiens, UniProt P00533, L858R/T790M); assay: Inhibition of human N-terminal GST-tagged EGFR double T790M/L858R mutant (696 to 1022 residues) expressed in Sf21 insect cells by HTRF assay
[2] = target: Epidermal growth factor receptor (Homo sapiens, UniProt P00533, C797S/L858R/T790M); assay: Inhibition of human N-terminal GST-tagged EGFR triple T790M/L858R/C797S mutant (696 to 1022 residues) expressed in Sf21 insect cells by HTRF assay
[3] = target: Epidermal growth factor receptor (Homo sapiens, UniProt P00533); assay: Inhibition of human N-terminal GST-tagged EGFR (696 to 1022 residues) expressed in Sf21 insect cells by HTRF assay
[4] = target: Epidermal growth factor receptor (Homo sapiens, UniProt P00533, L858R); assay: Inhibition of human N-terminal GST-tagged EGFR L858R mutant (696 to 1022 residues) expressed in Sf21 insect cells by HTRF assay
[5] = target: T1, STE20-like serine/threonine-protein kinase (Homo sapiens, UniProt Q9H2G2); assay: Inhibition of tracer 236 binding to recombinant full length human GST-tagged SLK expressed in baculovirus expression system measured after 60 mins by Lanthascreen assay relative to control
[6] = target: T1, STE20-like serine/threonine-protein kinase; assay: Binding affinity to wild-type human partial length SLK (S14 to A307 residues) expressed in bacterial expression system assessed as residual binding level at 10 uM by Kinomescan method
[7] = tested on: Epidermal growth factor receptor (Homo sapiens), P00533 [L858R,T790M]; assay: Allosteric inhibition of human N-terminal GST-tagged EGFR double T790M/L858R mutant (696 to 1022 residues) expressed in Sf21 insect cells assessed as change in inhibition rate in presence of 1 to 1000 uM ATP by HTRF assay
[8] = target: Mast/stem cell growth factor receptor Kit (Homo sapiens, UniProt P10721, V559D/V654A); assay: Inhibition of recombinant human His-tagged KIT V559D/V654A double mutant expressed in baculovirus expression system at 10 uM by kinomescan assay

Sequence of Epidermal growth factor receptor (Homo sapiens, UniProt P00533, L858R) (P00533 25-1210 L858R limits assumed): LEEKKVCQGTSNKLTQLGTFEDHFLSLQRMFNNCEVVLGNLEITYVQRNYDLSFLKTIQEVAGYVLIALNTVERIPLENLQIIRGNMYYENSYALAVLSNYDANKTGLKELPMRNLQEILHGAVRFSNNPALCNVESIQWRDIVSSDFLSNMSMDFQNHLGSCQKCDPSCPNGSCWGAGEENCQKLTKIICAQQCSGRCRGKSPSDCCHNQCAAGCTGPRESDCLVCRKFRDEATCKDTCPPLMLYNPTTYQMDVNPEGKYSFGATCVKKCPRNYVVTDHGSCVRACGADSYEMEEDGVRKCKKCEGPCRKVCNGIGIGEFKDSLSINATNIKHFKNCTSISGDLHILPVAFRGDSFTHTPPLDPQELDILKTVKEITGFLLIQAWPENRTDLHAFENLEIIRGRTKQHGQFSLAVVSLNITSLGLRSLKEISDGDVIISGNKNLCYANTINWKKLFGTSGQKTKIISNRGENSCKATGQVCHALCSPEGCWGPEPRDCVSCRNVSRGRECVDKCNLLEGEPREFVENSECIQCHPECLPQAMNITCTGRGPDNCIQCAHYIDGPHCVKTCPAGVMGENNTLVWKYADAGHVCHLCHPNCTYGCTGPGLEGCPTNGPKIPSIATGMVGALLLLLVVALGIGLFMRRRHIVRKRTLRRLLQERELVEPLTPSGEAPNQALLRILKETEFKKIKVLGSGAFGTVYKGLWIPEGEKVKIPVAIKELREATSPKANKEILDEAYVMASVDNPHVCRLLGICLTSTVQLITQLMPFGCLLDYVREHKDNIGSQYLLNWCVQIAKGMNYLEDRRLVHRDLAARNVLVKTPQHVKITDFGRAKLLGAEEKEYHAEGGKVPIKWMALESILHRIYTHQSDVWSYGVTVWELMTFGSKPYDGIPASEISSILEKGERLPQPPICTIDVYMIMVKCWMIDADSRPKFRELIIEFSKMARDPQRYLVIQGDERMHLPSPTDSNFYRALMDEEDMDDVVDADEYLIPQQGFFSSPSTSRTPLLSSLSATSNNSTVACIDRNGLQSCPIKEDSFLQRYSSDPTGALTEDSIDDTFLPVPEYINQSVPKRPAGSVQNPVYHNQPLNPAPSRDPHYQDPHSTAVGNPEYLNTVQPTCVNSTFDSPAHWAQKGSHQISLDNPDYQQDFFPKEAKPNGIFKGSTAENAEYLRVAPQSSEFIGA
T1 sequence (Q9H2G2 whole entry, the tested form may be a part): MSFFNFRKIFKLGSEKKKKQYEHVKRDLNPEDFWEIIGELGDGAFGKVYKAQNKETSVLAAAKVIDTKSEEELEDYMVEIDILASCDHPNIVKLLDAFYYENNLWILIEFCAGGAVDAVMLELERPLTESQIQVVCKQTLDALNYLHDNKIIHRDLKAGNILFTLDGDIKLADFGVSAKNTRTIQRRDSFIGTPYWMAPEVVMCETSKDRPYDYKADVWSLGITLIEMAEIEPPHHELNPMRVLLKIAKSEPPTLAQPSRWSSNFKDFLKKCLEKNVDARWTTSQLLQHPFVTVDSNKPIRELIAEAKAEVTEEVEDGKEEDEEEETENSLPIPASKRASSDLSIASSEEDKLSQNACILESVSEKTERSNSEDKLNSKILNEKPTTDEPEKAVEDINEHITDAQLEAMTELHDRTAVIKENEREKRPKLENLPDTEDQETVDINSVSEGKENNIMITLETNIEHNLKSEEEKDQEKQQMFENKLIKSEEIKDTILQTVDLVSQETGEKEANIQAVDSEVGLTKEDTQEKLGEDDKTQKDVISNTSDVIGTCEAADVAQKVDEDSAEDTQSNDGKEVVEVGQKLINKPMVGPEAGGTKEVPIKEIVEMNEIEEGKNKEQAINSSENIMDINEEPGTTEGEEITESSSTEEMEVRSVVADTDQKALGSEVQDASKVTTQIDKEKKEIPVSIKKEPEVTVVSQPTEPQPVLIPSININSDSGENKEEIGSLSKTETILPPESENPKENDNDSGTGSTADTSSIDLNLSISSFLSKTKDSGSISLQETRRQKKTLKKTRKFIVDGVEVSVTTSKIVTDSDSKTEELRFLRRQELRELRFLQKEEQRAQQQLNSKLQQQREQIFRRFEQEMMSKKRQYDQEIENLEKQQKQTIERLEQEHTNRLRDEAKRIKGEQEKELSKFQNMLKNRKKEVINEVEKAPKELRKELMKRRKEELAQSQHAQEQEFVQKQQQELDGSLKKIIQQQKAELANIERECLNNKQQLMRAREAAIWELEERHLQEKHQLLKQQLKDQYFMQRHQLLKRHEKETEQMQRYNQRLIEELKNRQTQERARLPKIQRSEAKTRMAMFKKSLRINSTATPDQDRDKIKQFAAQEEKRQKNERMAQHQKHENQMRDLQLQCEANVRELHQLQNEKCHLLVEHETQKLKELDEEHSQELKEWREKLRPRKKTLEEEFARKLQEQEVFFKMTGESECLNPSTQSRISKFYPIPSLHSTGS
Sequence of Epidermal growth factor receptor (Homo sapiens, UniProt P00533, L858R/T790M) (P00533 25-1210 T790M/L858R limits assumed): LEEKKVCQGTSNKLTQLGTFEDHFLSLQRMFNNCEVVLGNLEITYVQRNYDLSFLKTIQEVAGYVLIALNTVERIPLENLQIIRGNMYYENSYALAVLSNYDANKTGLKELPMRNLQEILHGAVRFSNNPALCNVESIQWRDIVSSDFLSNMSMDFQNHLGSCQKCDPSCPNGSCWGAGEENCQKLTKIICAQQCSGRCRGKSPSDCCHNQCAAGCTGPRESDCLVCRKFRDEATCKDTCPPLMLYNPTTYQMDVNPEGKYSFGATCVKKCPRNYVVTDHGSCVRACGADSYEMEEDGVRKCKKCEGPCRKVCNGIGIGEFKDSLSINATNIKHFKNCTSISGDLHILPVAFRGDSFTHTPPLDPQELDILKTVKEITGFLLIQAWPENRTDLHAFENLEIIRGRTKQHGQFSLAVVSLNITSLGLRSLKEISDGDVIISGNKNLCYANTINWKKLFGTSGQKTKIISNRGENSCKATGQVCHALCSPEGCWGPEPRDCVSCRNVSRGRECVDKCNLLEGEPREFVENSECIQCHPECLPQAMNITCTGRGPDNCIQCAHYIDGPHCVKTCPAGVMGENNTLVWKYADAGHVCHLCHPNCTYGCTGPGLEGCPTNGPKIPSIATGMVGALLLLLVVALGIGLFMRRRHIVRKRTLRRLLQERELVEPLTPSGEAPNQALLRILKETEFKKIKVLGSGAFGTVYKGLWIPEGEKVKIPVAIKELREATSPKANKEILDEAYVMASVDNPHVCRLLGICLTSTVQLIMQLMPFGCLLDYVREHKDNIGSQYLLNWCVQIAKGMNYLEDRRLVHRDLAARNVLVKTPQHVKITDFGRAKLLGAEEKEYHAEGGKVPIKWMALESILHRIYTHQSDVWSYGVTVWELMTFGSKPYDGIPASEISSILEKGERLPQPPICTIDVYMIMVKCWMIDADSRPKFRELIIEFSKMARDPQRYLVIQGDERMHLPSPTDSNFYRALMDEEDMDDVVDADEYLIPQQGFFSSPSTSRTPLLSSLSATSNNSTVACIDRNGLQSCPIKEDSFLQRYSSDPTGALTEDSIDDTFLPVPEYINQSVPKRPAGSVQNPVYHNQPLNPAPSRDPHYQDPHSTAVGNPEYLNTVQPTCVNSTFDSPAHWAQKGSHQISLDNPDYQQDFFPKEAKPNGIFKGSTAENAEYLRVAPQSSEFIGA
Sequence of Epidermal growth factor receptor (Homo sapiens, UniProt P00533) (P00533 whole entry, the tested form may be a part): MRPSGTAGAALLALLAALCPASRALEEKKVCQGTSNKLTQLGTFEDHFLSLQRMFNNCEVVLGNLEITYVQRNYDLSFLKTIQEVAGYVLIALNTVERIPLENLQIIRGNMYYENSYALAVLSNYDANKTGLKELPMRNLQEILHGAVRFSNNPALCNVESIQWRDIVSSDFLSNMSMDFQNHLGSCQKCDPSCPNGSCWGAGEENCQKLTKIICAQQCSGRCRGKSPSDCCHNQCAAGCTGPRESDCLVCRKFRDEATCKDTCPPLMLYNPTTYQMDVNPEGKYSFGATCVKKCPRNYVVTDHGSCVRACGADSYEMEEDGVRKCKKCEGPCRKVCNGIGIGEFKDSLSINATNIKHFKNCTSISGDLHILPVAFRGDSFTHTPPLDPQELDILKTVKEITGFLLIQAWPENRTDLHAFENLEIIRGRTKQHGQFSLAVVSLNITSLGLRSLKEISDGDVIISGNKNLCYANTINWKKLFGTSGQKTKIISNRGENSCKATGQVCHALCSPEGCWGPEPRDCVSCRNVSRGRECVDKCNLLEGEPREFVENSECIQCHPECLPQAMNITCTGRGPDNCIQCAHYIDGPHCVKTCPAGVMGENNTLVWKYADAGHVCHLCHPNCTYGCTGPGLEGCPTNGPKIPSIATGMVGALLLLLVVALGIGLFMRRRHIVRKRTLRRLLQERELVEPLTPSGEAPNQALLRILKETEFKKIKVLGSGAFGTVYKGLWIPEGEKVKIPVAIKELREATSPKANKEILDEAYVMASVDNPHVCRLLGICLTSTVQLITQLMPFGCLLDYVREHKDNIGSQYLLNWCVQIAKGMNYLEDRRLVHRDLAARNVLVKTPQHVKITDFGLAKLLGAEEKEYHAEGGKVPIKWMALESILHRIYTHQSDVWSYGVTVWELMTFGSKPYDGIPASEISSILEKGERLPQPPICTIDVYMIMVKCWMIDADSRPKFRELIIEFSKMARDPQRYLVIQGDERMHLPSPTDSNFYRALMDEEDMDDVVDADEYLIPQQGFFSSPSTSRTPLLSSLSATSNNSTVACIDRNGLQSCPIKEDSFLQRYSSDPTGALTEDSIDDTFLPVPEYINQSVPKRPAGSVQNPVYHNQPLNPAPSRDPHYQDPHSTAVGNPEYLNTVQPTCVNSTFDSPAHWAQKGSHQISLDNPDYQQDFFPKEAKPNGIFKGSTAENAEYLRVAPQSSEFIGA

SMILES	IC50 [1] [nM]	IC50 [2] [nM]	IC50 [3] [nM]	IC50 [4] [nM]	IC50 [5] [nM]	Kd [6] [nM]	inhibition [7]	Kd [8] [nM]
O=C1c2cc(-c3ccc(N4CCNCC4)cc3)ccc2Nc2ccc(F)cc2N1Cc1ccccc1	31	19	> 1000	150	–	–	–	–
CN1CCN(c2ccc(Oc3ccc4c(c3)C(=O)N(Cc3ccccc3)c3cc(F)ccc3N4)cc2)CC1	11	13	> 1000	154	> 10000	> 10000	inactive	> 10000
